Assay results reported in ChEMBL document CHEMBL5113380, “Functionalized quinoxalinones as privileged structures with broad-ranging pharmacological activities” (Eur J Med Chem, 2022).
In brackets after ≈: the same amount, converted by molar mass. Each block holds one molecule with its values, some of them ahead of it.

What was measured:
[1] = Inhibition of palmitate-induced lipid accumulation in human HepG2 cells relative to control; assay type: functional
[2] = biological target: T1, Glutamate receptor ionotropic AMPA (Homo sapiens, UniProt P42261+P42262+P42263+P48058); experiment: Binding affinity to AMPA receptor (unknown origin); assay type: protein-complex assay
Glutamate receptor 2 = Glutamate receptor 2 (Homo sapiens, UniProt P42262); experiment: Binding affinity to GluA2 receptor (unknown origin)
[3] = biological target: Glutamate receptor ionotropic, kainate 1 (Homo sapiens, UniProt P39086); experiment: Binding affinity to GluK1 receptor (unknown origin)
[4] = biological target: Glutamate receptor ionotropic, kainate 2 (Homo sapiens, UniProt Q13002); experiment: Binding affinity to GluK2 receptor (unknown origin)
[5] = Binding affinity to KA receptor (unknown origin); parameters: species or system Homo sapiens
[6] = biological target: Glutamate [NMDA] receptor; experiment: Binding affinity to NMDA receptor (unknown origin); assay type: protein-complex assay, Homo sapiens
[7] = biological target: T1, Glutamate receptor ionotropic AMPA; experiment: Displacement of [3H]AMPA from AMPA receptor (unknown origin); assay type: protein-complex assay
[8] = biological target: Glutamate [NMDA] receptor; experiment: Displacement of [3H]glycine from NMDA receptor (unknown origin); assay type: protein-complex assay, Homo sapiens
Candida albicans = experiment: Antifungal activity against Candida albicans; assay type: functional
Candida [9] = experiment: Antifungal activity against Candida species isolate 1; assay type: functional
Candida [10] = experiment: Antifungal activity against Candida species isolate 2; assay type: functional
Candida [11] = experiment: Antifungal activity against Candida species isolate 3; assay type: functional
Pichia kudriavzevii = experiment: Antifungal activity against Candida krusei; assay type: functional
Candida parapsilosis = experiment: Antifungal activity against Candida parapsilosis; assay type: functional; details: Lodderomyces parapsilosis
Candida tropicalis = experiment: Antifungal activity against Candida tropicalis; assay type: functional
Nakaseomyces glabratus = experiment: Antifungal activity against Candida glabrata; assay type: functional
[12] = biological target: Human immunodeficiency virus type 1 reverse transcriptase (Human immunodeficiency virus 1, UniProt Q72547); experiment: Inhibition of HIV1 reverse transcriptase
[13] = biological target: Human immunodeficiency virus type 1 reverse transcriptase (Human immunodeficiency virus 1) (UniProt Q72547); experiment: Inhibition of HIV1 reverse transcriptase at 10 uM relative to control
[14] = biological target: Human immunodeficiency virus type 1 reverse transcriptase (Human immunodeficiency virus 1) (UniProt Q72547); experiment: Inhibition of HIV1 reverse transcriptase at 100 uM relative to control
[15] = biological target: T1, Glutamate receptor ionotropic AMPA; experiment: Displacement of [3H]kainate from AMPA receptor (unknown origin); assay type: protein-complex assay
[16] = Displacement of [3H]glycine from AMPA receptor (unknown origin); assay type: protein-complex assay, Homo sapiens
Homo sapiens = organism: Homo sapiens; experiment: Inhibition of human TRK relative to control; parameters: concentration or dose not given beside the values; details: concentration not given here
[17] = biological target: Prostaglandin G/H synthase 1 (Homo sapiens, UniProt P23219)
[18] = Antioxidant activity assessed as DPPH radical scavenging activity; assay type: functional; details: read-out: IC50
[19] = Inhibition of ALR2 (unknown origin); parameters: species or system Homo sapiens
[20] = Inhibition of ALR1 (unknown origin) relative to control; parameters: concentration or dose not given beside the values; details: Homo sapiens; concentration not given here
[21] = Antioxidant activity assessed as DPPH radical scavenging activity at 100 uM; assay type: functional
[22] = Antioxidant activity assessed as DPPH radical scavenging activity at 50 uM; assay type: functional
[23] = Antioxidant activity assessed as DPPH radical scavenging activity at 10 uM; assay type: functional
Staphylococcus aureus = experiment: Antibacterial activity against Staphylococcus aureus; assay type: functional

Chain of Glutamate receptor ionotropic, kainate 2 (Q13002 whole entry): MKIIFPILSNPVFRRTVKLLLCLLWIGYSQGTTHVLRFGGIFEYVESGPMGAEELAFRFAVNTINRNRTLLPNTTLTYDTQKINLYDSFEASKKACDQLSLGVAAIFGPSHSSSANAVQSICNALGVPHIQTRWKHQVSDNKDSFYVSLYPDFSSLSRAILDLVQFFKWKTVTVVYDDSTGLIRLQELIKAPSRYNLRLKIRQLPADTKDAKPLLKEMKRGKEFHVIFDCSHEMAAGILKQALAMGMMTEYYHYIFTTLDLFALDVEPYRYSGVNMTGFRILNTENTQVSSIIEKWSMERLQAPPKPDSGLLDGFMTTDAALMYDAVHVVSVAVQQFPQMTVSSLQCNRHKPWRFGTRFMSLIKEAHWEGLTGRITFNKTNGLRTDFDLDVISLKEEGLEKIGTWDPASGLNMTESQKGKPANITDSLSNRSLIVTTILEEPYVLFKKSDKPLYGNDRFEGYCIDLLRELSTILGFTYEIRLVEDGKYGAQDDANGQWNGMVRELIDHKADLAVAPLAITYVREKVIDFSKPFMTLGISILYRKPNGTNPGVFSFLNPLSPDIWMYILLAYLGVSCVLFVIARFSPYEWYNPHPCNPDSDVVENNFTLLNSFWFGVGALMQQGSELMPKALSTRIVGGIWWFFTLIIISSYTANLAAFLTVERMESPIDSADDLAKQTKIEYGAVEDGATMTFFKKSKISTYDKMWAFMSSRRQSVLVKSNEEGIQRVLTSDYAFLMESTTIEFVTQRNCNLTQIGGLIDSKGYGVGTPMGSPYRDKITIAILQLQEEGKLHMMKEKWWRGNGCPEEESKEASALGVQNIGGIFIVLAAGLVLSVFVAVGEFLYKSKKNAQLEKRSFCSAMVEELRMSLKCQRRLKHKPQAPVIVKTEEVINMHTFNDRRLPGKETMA
Chain of Glutamate receptor 2 (P42262 whole entry): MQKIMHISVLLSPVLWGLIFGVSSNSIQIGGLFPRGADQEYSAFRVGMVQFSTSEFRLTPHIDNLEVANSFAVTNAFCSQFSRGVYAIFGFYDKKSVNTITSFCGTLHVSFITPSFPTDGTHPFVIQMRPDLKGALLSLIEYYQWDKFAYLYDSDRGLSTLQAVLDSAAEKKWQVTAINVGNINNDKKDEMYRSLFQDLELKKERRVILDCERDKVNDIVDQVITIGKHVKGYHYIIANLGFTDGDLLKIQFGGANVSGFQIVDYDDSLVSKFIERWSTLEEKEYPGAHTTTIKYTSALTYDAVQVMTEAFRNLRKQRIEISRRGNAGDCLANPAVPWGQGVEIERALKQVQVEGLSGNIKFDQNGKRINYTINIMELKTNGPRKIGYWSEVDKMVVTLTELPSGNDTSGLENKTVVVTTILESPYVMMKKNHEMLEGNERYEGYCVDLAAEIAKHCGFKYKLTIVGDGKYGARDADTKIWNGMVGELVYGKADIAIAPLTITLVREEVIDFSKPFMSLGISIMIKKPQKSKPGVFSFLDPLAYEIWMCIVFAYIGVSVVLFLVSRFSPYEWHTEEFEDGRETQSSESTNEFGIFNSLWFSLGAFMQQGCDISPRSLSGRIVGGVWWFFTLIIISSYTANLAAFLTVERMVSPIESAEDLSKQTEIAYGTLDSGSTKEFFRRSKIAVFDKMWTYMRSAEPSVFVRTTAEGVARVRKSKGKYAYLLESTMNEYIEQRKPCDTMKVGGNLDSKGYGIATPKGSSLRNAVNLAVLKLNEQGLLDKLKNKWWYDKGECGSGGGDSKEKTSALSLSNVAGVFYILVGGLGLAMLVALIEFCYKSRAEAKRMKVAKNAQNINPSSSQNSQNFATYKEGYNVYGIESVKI
Chain of Glutamate receptor ionotropic, kainate 1 (P39086 whole entry): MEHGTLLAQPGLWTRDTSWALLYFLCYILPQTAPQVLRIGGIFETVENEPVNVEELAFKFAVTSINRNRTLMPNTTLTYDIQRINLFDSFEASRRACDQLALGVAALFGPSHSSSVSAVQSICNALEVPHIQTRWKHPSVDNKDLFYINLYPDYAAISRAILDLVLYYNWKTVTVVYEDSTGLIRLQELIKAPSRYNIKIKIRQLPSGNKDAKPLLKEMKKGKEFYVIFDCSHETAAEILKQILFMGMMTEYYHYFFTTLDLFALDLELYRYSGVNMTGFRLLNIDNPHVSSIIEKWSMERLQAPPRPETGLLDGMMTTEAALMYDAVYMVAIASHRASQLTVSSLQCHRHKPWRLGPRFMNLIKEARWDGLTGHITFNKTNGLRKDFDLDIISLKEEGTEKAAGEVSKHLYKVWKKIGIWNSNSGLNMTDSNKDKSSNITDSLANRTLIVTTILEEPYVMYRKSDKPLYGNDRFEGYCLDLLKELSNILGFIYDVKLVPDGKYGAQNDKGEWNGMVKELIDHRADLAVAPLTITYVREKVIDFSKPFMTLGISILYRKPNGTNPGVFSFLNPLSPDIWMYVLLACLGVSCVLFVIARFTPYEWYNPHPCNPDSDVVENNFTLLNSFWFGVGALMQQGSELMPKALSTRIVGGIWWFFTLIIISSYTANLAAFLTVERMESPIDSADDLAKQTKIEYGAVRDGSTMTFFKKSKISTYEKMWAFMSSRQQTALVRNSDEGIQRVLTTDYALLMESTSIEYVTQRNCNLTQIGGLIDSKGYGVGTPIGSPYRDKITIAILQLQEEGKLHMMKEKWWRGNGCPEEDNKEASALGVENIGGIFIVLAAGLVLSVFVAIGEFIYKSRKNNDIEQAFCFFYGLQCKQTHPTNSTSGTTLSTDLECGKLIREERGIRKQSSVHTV
Chain of Prostaglandin G/H synthase 1 (P23219 whole entry): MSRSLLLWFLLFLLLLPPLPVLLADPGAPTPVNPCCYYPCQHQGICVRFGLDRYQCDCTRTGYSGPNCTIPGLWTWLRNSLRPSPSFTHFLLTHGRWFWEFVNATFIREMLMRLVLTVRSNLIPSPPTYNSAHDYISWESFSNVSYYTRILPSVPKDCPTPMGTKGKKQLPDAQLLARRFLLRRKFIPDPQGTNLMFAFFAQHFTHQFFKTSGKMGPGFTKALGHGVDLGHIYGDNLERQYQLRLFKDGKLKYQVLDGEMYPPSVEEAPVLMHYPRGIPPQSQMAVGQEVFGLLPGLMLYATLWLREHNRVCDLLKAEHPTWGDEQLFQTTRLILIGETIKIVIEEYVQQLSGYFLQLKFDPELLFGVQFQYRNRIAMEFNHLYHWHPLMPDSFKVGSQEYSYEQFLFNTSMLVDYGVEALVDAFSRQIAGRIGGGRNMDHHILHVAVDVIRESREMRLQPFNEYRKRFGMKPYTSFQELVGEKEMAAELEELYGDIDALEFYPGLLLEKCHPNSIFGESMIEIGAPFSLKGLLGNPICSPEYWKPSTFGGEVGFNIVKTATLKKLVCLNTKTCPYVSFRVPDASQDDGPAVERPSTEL

SMILES: Cc1cccc2c1NCCN2
inhibition (INH) [1]: 30%

SMILES: Cc1ccc2c(c1)N[C@H](C)C(=O)N2
inhibition (INH) [1]: 50%

SMILES: Cc1ccc2c(c1)N[C@@H](C)C(=O)N2
inhibition (INH) [1]: 50%

SMILES: O=c1[nH]c2ccc(CCP(=O)(O)O)cc2[nH]c1=O
IC50 [2]: > 100 µM
Ki [3]: > 100 µM
Ki [4]: > 100 µM
IC50 [5]: > 100 µM
Ki [6]: 56 µM

SMILES: CCC(C)N1CCc2c(Br)cc3nc(O)c(O)nc3c2C1 (stereo not drawn)
IC50 [7]: 2.5 µM
IC50 [15]: 430 nM
IC50 [16]: > 10 µM

SMILES: Oc1nc2cc(Cl)c(Cl)cc2n2cnnc12
IC50 [7]: 4.69 µM
IC50 [8]: 630 nM

SMILES: CCCc1nnc2c(O)nc3cc(Cl)c(Cl)cc3n12
IC50 [8]: 3920 nM

SMILES: Cc1cnc2ccccc2n1
inhibition (INH) [1]: 20%

SMILES: Cc1nn(-c2ccccc2)c(N2CCN(S(=O)(=O)c3ccccc3)CC2)c1/C=N/Nc1nc2ccccc2nc1O
inhibition (Homo sapiens): 12%

SMILES: CN1CCc2c([N+](=O)[O-])cc3[nH]c(=O)c(=O)[nH]c3c2C1
IC50 [7]: 0.063 µM
IC50 [15]: 368 nM
IC50 [16]: 0.37 µM

SMILES: O=c1[nH]c2ccc(CCCP(=O)(O)O)cc2[nH]c1=O
IC50 [2]: > 100 µM
Ki [3]: > 100 µM
Ki [4]: > 100 µM
IC50 [5]: > 100 µM
Ki [6]: 55 µM

SMILES: CC(C)CCN1CCc2c(Br)cc3nc(O)c(O)nc3c2C1
IC50 [7]: 9.7 µM
IC50 [15]: 680 nM
IC50 [16]: > 10 µM

SMILES: CN1CCNc2ccccc21
inhibition (INH) [1]: 30%

SMILES: Cc1cccc2c1NC[C@H](C)N2
inhibition (INH) [1]: 30%

Further lines, with some results ahead:

IC50 [2]: > 100 µM
Ki (Glutamate receptor 2): > 100 µM
Ki [3]: 12 µM
Ki [4]: > 100 µM
IC50 [5]: > 100 µM
Ki [6]: > 100 µM
SMILES: O=c1[nH]c2ccc(-c3cccc(P(=O)(O)O)c3)cc2[nH]c1=O

Ki [7]: 2100 nM
Ki [8]: 110 nM
SMILES: O=C(O)Cn1c(=O)c(=O)[nH]c2cc(Cl)c(Cl)cc21

IC50 [2]: > 100 µM
Ki (Glutamate receptor 2): > 100 µM
Ki [4]: 48 µM
IC50 [5]: > 100 µM
Ki [6]: > 100 µM
SMILES: O=C(O)c1ccc(-c2ccc3[nH]c(=O)c(=O)[nH]c3c2)cc1

MIC (Candida albicans): 8 µg/mL (≈ 28.4 µM)
MIC (Candida [9]): 125 µg/mL (≈ 443 µM)
MIC (Candida [10]): 125 µg/mL (≈ 443 µM)
MIC (Candida [11]): 125 µg/mL (≈ 443 µM)
MIC (Pichia kudriavzevii): 250 µg/mL (≈ 886 µM)
MIC (Candida parapsilosis): 125 µg/mL (≈ 443 µM)
MIC (Candida tropicalis): 250 µg/mL (≈ 886 µM)
MIC (Nakaseomyces glabratus): 250 µg/mL (≈ 886 µM)
SMILES: O=c1[nH]c2ccc(C(F)(F)F)cc2nc1C(F)(F)F

IC50 [12]: 630 nM
inhibition [13]: 91%
inhibition [14]: 99%
SMILES: CCC(=O)N1CC(=O)Nc2ccccc21

inhibition [13]: 7%
inhibition [14]: 56%
SMILES: CC(=O)N1CC(=O)Nc2ccccc21

inhibition (Homo sapiens): 20%
IC50 [17]: > 50 µM
SMILES: Cc1nn(-c2ccccc2)c(N2CCNCC2)c1/C=N/Nc1nc2ccccc2nc1O

inhibition (Homo sapiens): 62%
IC50 [17]: > 50 µM
SMILES: Cc1nn(-c2ccccc2)c(N(C)C)c1/C=N/Nc1nc2ccccc2nc1O

IC50 [12]: 75 nM
SMILES: COC(=O)c1sc(I)cc1S(=O)(=O)N1c2cc(Cl)ccc2NC(=O)C1C (stereo not drawn)

IC50 [18]: 78.9 µM
IC50 [19]: 107 nM
inhibition [20]: 34.3%
SMILES: O=c1c(/C=C/c2ccc(O)cc2)nc2ccc(F)cc2n1-c1cnn(O)c1
Activity [21]: 65.3%
Activity [22]: 31.5%
Activity [23]: 18.7%

Ki [7]: 84 nM
Ki [15]: 2200 nM
Ki [16]: 37 µM
SMILES: O=c1[nH]c2cc(-n3ccnc3)c([N+](=O)[O-])cc2[nH]c1=O [YM-90K]

MIC (Staphylococcus aureus): 62.5 µg/mL (≈ 204 µM)
MIC (Candida albicans): > 125 µg/mL
MIC (Candida [9]): 62.5 µg/mL (≈ 204 µM)
MIC (Candida [11]): < 3.5 µg/mL
MIC (Pichia kudriavzevii): 125 µg/mL (≈ 407 µM)
MIC (Candida parapsilosis): > 125 µg/mL
MIC (Candida tropicalis): 125 µg/mL (≈ 407 µM)
MIC (Nakaseomyces glabratus): > 125 µg/mL
SMILES: O=c1[nH]c2cc(C(F)(F)F)ccc2nc1CBr

IC50 [12]: 200 nM
SMILES: COC(=O)c1sccc1S(=O)(=O)N1c2cc(Cl)ccc2NC(=O)C1C (stereo not drawn)

IC50 [2]: 24 µM
Ki (Glutamate receptor 2): > 100 µM
Ki [3]: 1.2 µM
Ki [4]: 33 µM
IC50 [5]: 57 µM
Ki [6]: > 100 µM
SMILES: O=C(O)c1cc(-c2ccc3[nH]c(=O)c(=O)[nH]c3c2)ccc1Cl

IC50 [19]: 59 nM
inhibition [20]: 37.6%
SMILES: COc1ccc2nc(/C=C/c3ccc(O)cc3)c(=O)n(CC(=O)O)c2c1
Activity [21]: 59.2%
Activity [22]: 34.3%
